Test results reported in paper PMC12904578 (PLOS Pathogens, 2026).
“Also recorded” adds a separate entry of the source.

Tests used:
[1] = target: H5FR H5 HA ectodomain from A/duck/France/161108h/2016 (H5N8), polyhistidine-tagged (SPR form) (influenza A virus A/duck/France/161108h/2016 (H5N8)); test: SPR
[2] = test system: VN1194 H5 HA from A/Vietnam/1194/2004 (H5N1); conditions: cited from earlier work
H5FR H5 HA = format: binding, A/duck/France/161108h/2016 (H5N8)
[3] = test system: Sh2 H7 HA from A/Shanghai/2/2013 (H7N9); conditions: cited from earlier work

O-linked glycopeptide compound 2 (core 1 on peptide FVTIG, no sialic acid)
Kd [1]: > 650 µM

CC(=O)NC1C(O)OC(CO)C(OC2OC(CO)C(O)C(OC3(C(=O)O)CC(O)C(NC(C)=O)C(C(O)C(O)CO)O3)C2O)C1O (centres unmarked) [3´-SLN, NeuAcα2–3Galβ1–4GlcNAc]
Siaα2–3Gal linkage configuration of 3´-SLN in VN1194 H5 HA [2]: trans configuration

NeuAcα2–3Galβ1–3GlcNAcβ1–3Galβ1–4Glc [LSTa]
LSTa residues visible in VN1194 H5 HA complex [2]: only Sia-1 and Gal-2 were visible | binding interactions in H5FR HA receptor binding site (H5FR H5 HA): Sia-1, Gal-2 and GlcNAc-3 were ordered; also recorded: similarly to VN1194 HA or H5VN HA

NeuAcα2–3Galβ1–4GlcNAcβ1–3GalNAcα-Thr [glycan #21]
binding mode of glycan in Sh2 H7 HA [3]: adopts a cis configuration in the Siaα2–3Gal linkage
